{"source": "patent US20090036540A1", "about": "“Guanylhydrazones in Methods of Treatment or Diagnosis as Modulators of Signal Transduction” (Cytokine PharmaSciences, Inc., priority 2003, published 2009)", "key": {"[1]": {"tested_on": "PBMCs", "assay": "Western blot of LPS-stimulated PBMCs for phosphorylated proteins", "assay_type": "cell-based, human", "details": "1.0 μM CNI-1493 pre-incubation, LPS 15 minutes", "description": "Peripheral Blood Mononuclear Cells (PBMCs) were isolated from peripheral blood from healthy volunteers using standard density-gradient centrifugation over Ficoll-Paque Plus (Amersham Pharmacia Biotech AB, Uppsala, Sweden) after washing in resuspension in IMDM supplemented with 10% FBS, penicillin, streptomycin and amphotericin (hereafter referred to as complete IMDM).\nFor western blot samples, […] PBMCs were suspended in 1 ml media and LPS stimulations were 15 minute incubations (37° C., 5% CO2) with 10 ng/ml LPS or pre-incubated with 1.0 μM CNI-1493 (Cytokine PharmaSciences, Inc.). Stimulations were terminated by an ice-cold PBS wash. Cells were subsequently pelleted, lysed, denatured (5 minutes at 95° C.) and stored at −20° C. 10^6 PBMCs lysed in 200 μl SDS Sample Buffer (62.5 mM Tris-HCl (pH 6.8 at 25° C.), 2% w/v SDS, 10% glycerol, 50 mM DTT, 0.01% w/v bromophenol blue), 25 μl of which was separated on 12% SDS-PAGE gels and transferred to nitrocellulose membranes. Antibodies for immunoblotting were from Cell Signaling and included Phospho-p38 MAP Kinase (cat #9211), Phospho-p44/42 MAP Kinase (cat #9101), Phospho-PKCzeta/lambda (cat #9378), Phospho-MEK1/2 (cat #9121), Phospho-Raf (cat #9424) and Phospho-SAPK/JNK (cat #9255)."}, "[2]": {"details": "steroid- and infliximab-resistant Crohn's disease; cited from earlier work"}, "[3]": {"tested_on": "pMek1/2", "assay": "Immunohistochemistry of biopsies from Crohn's disease patients for pMek1/2 expression", "assay_type": "in vivo, human", "details": "before vs after treatment", "description": "Biopsies obtained from Crohn's disease patients (before and after Semapimod treatment) who participated in the Semapimod-pilot study in the AMC, were analyzed by immunohistochemistry.\nBiopsies obtained from Crohn's disease patients (before and after treatment) who participated in the Semapimod-pilot study performed in our department, were analyzed for pMek1/2 expression (the substrate of Raf) by immunohistochemistry (FIGS. 8-9)."}, "[4]": {"assay": "CRP serum levels of Crohn's disease patients in the Semapimod pilot study", "assay_type": "in vivo, human", "from_the_text": "FIGS. 9A and B show the IHC analysis of Crohn's disease patients who participated in the Semapimod pilot study. […] CRP levels of patient #12 were not affected by Semapimod (e.g. nonresponder). Importantly, pMek1/2 expression was also not affected by Semapimod in this nonresponder. […] This finding correlates with the low CRP levels at baseline (FIG. 9B)."}, "[5]": {"tested_on": "4/4 macrophages", "assay": "Western blot of LPS-stimulated 4/4 macrophages for MAPK signaling molecules", "assay_type": "cell-based, murine", "details": "0.1 and 1 μM, 1 hour pre-incubation, LPS 100 ng/ml 15 minutes", "description": "4/4 macrophages were used for in vitro experiments and western blot analysis. An in vitro kinase assay was performed to reconfirm findings obtained with western blotting. […] 4/4 macrophages were grown to 70% confluence, pre-incubated for 1 hour with Semapimod (0.1 and 1 μM) and stimulated with LPS (100 ng/ml) for 15 minutes. Cells were harvested in sample buffer and whole cell lysates were loaded onto 10% SDS-PAGE and subsequently transferred to a PVDF membrane. Blots were stained with phospho-specific antibodies for various MAPK signaling molecules. […] Importantly, pRaf protein levels and pPak, upstream of Raf, were not affected due to Semapimod incubation. […] FIG. 6 Western blot: Reduced pP38, pJnk, pErk in 4/4 macrophages treated with Semapimod (1 and 0.1 μM) in LPS present conditions was seen. Moreover, the phosphorylation status of MKK4/7 (upstream of Jnk), and Mek1/2 (upstream of Erk) was affected due to Semapimod treatment. pRaf expression was not influenced by Semapimod. To test for equal loading, western blots were analyzed for actin expression. Similar results were obtained in three independent experiments."}}, "note": "Entries after “also recorded” stand apart in the source; their conditions may differ."}
{"smiles": "C/C(=N\\NC(=N)N)c1cc(NC(=O)CCCCCCCCC(=O)Nc2cc(/C(C)=N/NC(=N)N)cc(/C(C)=N/NC(=N)N)c2)cc(/C(C)=N/NC(=N)N)c1", "note": "[Semapimod]", "values": [{"measurement": "MEK phosphorylation", "setting": "[1]", "value": "abolishes MEK phosphorylation"}, {"measurement": "lipopolysaccharide-dependent phosphorylation of the PKC site in c-Raf", "setting": "[1]", "value": "does not interfere"}, {"measurement": "clinical effect in Crohn's disease", "setting": "[2]", "value": "induces clinical remission and endoscopal healing"}, {"measurement": "pMek1/2 expression in biopsies, responders", "setting": "[3]; Crohn's disease patients who responded (n=5), p=0.0348", "value": "significant decrease"}, {"measurement": "pMek1/2 expression in biopsies, nonresponder", "setting": "[3]; one nonresponder (patient 012)", "value": "increased pMek1/2 expression; also recorded: not affected"}, {"measurement": "CRP, responders", "setting": "[4]; Crohn's disease patients n=5, all responders", "value": "CRP decrease"}, {"measurement": "CRP levels, nonresponder", "setting": "[4]; patient #12", "value": "not affected"}, {"measurement": "expression of pMKK4/7", "setting": "[5]", "value": "reduced expression"}, {"measurement": "expression of pMek1/2", "setting": "[5]", "value": "reduced expression"}, {"measurement": "pPak, upstream of Raf", "setting": "[5]", "value": "not affected"}, {"measurement": "pRaf protein levels", "setting": "[5]", "value": "not affected"}, {"measurement": "phosphorylated-Erk1/2", "setting": "[5]", "value": "decrease"}, {"measurement": "phosphorylated-Jnk", "setting": "[5]", "value": "decrease"}, {"measurement": "phosphorylated-P38", "setting": "[5]", "value": "decrease"}]}
